Measured values: article PMC7057177 (Journal of medicinal chemistry, 2019)

What was measured:
menin protein = target: T1, menin protein (Homo sapiens, UniProt O00255); assay: Fluorescence polarization; details: for Times more potent than MIV-6 in binding to menin: FP binding assay
T1 sequence (O00255 1-610): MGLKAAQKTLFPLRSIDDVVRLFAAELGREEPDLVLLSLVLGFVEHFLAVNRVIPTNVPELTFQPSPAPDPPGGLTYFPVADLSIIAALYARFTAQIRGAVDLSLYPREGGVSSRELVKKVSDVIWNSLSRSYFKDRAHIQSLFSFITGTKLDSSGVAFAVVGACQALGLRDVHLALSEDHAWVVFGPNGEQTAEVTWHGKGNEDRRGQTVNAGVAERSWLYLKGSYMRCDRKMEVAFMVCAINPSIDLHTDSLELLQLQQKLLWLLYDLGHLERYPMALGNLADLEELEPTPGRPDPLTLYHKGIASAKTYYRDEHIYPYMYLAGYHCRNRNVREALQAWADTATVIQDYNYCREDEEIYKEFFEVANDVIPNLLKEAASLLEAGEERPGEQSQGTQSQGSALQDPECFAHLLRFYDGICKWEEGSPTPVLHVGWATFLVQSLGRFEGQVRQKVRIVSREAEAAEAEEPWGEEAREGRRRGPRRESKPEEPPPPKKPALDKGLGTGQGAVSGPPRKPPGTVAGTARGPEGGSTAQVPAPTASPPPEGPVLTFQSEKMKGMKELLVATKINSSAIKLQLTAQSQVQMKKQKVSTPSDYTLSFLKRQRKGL

MV4;11 cell line = assay: Cell growth inhibition assay; type: cell-based, human
Solubility comparison = type: physicochemical; details: compared with 20

## CC(=O)O[C@H]1CCC[C@@H]1[C@](C#N)(c1ccccc1)C1CCN(CC2CN(c3ccc(C#N)cc3)C2)CC1 (mixture of isomers) [Compound 35, rac-(1S,2R)-2-((S)-Cyano(1-((1-(4-cyanophenyl)azetidin-3-yl)methyl)piperidin-4-yl)(phenyl)methyl)cyclopentyl acetate]
Menin protein
  Times more potent than 31 in binding to menin: 80 times

## CCCC(=O)O[C@H]1CCC[C@@H]1[C@](C#N)(c1ccccc1)C1CCN(CC2CN(c3ccc(C#N)cc3)C2)CC1 (mixture of isomers) [Compound 38, rac-(1S,2R)-2-((S)-Cyano(1-((1-(4-cyanophenyl)azetidin-3-yl)methyl)piperidin-4-yl)-(phenyl)methyl)cyclopentyl butyrate]
Menin protein
  Fold loss in binding affinity to menin relative to 37: 30 fold

## CNC(=O)O[C@H]1CCC[C@@H]1[C@](C#N)(c1ccccc1)C1CCN(CC2CN(c3ccc(C#N)cc3)C2)CC1 (mixture of isomers) [Compound 39, rac-(1S,2R)-2-((S)-Cyano(1-((1-(4-cyanophenyl)azetidin-3-yl)methyl)piperidin-4-yl)-(phenyl)methyl)cyclopentyl methylcarbamate]
Menin protein
  Times more potent than 31 in binding to menin: > 100 times
MV4;11 cell line
  Factor of enhancement of cellular activity in MV4;11 relative to 31: > 50

## CNC(=O)O[C@H]1CCC[C@@H]1[C@]1(C2CCN(CC3CN(c4ccc(S(=O)(=O)c5ccncc5)cc4)C3)CC2)CN(C)Cc2ccccc21 (mixture of isomers) [Compound 42, rac-(1S,2R)-2-((S)-2-Methyl-4-(1-((1-(4-(pyridin-4-ylsulfonyl)phenyl)azetidin-3-yl)methyl)piperidin-4-yl)-1,2,3,4-tetrahydroisoquinolin-4-yl)cyclopentyl methylcarbamate]
MV4;11 cell line; MV4;11 (M-89: MV4;11 and MOLM-13)
  Times more potent than MIV-6 in cell growth inhibition: > 100 times

## N#Cc1ccc(N2CC(CN3CCC(C(C#N)(c4ccccc4)C4CCCC4)CC3)C2)cc1 (racemic) [Compound 31, rac-4-(3-((4-(cyano(cyclopentyl)(phenyl)methyl)piperidin-1-yl)methyl)azetidin-1-yl)benzonitrile]
Menin protein
  Times weaker than MIV-6 in binding to menin: 16 times

## N#Cc1ccc(OCCCN2CCC(C3(C4CCCC4)NCCc4ccccc43)CC2)cc1 (stereo not drawn) [Compound 6, 4-(3-(4-(1-Cyclopentyl-1,2,3,4-tetrahydroisoquinolin-1-yl)piperidin-1-yl)propoxy)-benzonitrile]
Menin protein
  Times more potent than MIV-6 in binding to menin: 2-3 times

## N#Cc1ccc(N2CCC(N3CCC(C4(C5CCCC5)NCCc5ccccc54)CC3)CC2)cc1 (stereo not drawn) [Compound 9, 4-(4-(1-Cyclopentyl-1,2,3,4-tetrahydroisoquinolin-1-yl)-[1,4'-bipiperidin]-1'-yl)benzonitrile]
Menin protein
  Times less potent than 6 in binding to menin: approximately 10 times

## N#Cc1ccc(N2CCCC(CN3CCC(C4(C5CCCC5)NCCc5ccccc54)CC3)C2)cc1 (stereo not drawn) [Compound 10, 4-(3-((4-(1-Cyclopentyl-1,2,3,4-tetrahydroisoquinolin-1-yl)piperidin-1-yl)methyl)piperidin-1-yl)benzonitrile]
Menin protein
  Times less potent than 6 in binding to menin: ~100 times

## N#Cc1ccc(N2CC(CN3CCC(C4(C5CCCC5)NCCc5ccccc54)CC3)C2)cc1 (stereo not drawn) [Compound 12, 4-(3-((4-(1-Cyclopentyl-1,2,3,4-tetrahydroisoquinolin-1-yl)piperidin-1-yl)methyl)azetidin-1-yl)benzonitrile]
Menin protein
  Times more potent than 6 in binding to menin: 2 times
  Times more potent than MIV-6 in binding to menin: 5 times

## CS(=O)(=O)c1ccc(N2CC(CN3CCC(C4(C5CCCC5)NCCc5ccccc54)CC3)C2)cc1 (stereo not drawn) [Compound 13, 1-Cyclopentyl-1-(1-((1-(4-(methylsulfonyl)phenyl)azetidin-3-yl)methyl)piperidin-4-yl)-1,2,3,4-tetrahydroisoquinoline]
Menin protein
  Times less potent than 12 in binding to menin: 4 times

## CC(C)S(=O)(=O)c1ccc(N2CC(CN3CCC(C4(C5CCCC5)NCCc5ccccc54)CC3)C2)cc1 (stereo not drawn) [Compound 15, 1-Cyclopentyl-1-(1-((1-(4-(isopropylsulfonyl)phenyl)azetidin-3-yl)methyl)piperidin-4-yl)-1,2,3,4-tetrahydroisoquinoline]
Menin protein
  Times less potent than 14 in binding to menin: 2 times
  Times more potent than 13 in binding to menin: 2 times

## O=S(=O)(c1ccc(N2CC(CN3CCC(C4(C5CCCC5)NCCc5ccccc54)CC3)C2)cc1)C1CC1 (stereo not drawn) [Compound 16, 1-Cyclopentyl-1-(1-((1-(4-(cyclopropylsulfonyl)phenyl)azetidin-3-yl)methyl)piperidin-4-yl)-1,2,3,4-tetrahydroisoquinoline]
Menin protein
  Times more potent than 15 in binding to menin: 2-3 times

## O=S(=O)(c1ccncc1)c1ccc(N2CC(CN3CCC(C4(C5CCCC5)NCCc5ccccc54)CC3)C2)cc1 (stereo not drawn) [Compound 21, 1-Cyclopentyl-1-(1-((1-(4-(pyridin-4-ylsulfonyl)phenyl)azetidin-3-yl)methyl)piperidin-4-yl)-1,2,3,4-tetrahydroisoquinoline]
Solubility comparison
  Relative solubility: more soluble than 20

## O=S(=O)(c1ccncc1)c1ccc(N2CC(CN3CCC(C4(C5CCCC5)CNCc5ccccc54)CC3)C2)cc1 (stereo not drawn) [Compound 22, 4-Cyclopentyl-4-(1-((1-(4-(pyridin-4-ylsulfonyl)phenyl)azetidin-3-yl)methyl)piperidin-4-yl)-1,2,3,4-tetrahydroisoquinoline]
Menin protein
  Times more potent than 21 in binding to menin: 2-3 times

## CN1Cc2ccccc2C(C2CCCC2)(C2CCN(CC3CN(c4ccc(S(=O)(=O)c5ccncc5)cc4)C3)CC2)C1 (stereo not drawn) [Compound 23, 4-Cyclopentyl-2-methyl-4-(1-((1-(4-(pyridin-4-ylsulfonyl)phenyl)azetidin-3-yl)methyl)piperidin-4-yl)-1,2,3,4-tetrahydroisoquinoline]
MV4;11 cell line; Homo sapiens, MV4-11, read-out: IC50 cell growth inhibition MV4;11
  IC50: 0.4 to 1 µM
